Data published in article PMC12668304, “A Triple Threat Against Ovarian Cancer: Os(II)‐Pt(IV)‐Ceritinib Conjugates for Photodynamic Therapy, Chemotherapy, and Immunogenic Cell Death Induction” (Angewandte Chemie (International Ed. in English), 2025).
Read-outs that look alike come from different tables or passages of the source.

Legend:
A2780 MCTSs = test: (Photo-)cytotoxicity on 3D multicellular tumour spheroids, resazurin assay; type: cell-based, human; settings: for IC50: normoxic, one week of incubation
Method: A2780 spheroids (ca. 500 µm in diameter) were treated with increasing concentrations of the compounds and after 24 h of incubation, the medium was replaced with fresh medium, and the cells were either kept in the dark or irradiated for 1 h at 740 nm. Images of the spheroids were taken every 24 h for 3 days.
Additionally, the phototoxicity was tested via a fluorometric resazurin assay in A2780 MCTSs (Table 3). […] (Figure S29). […] This can be attributed to the different biological endpoints and time frames of the assays: spheroid diameter was monitored over 72 h, whereas resazurin measurements were performed after 7 days, potentially capturing delayed cytotoxic effects due to differences in drug cellular uptake.
4 h of incubation, the conversion of resazurin into resorufin was determined upon excitation at 540 nm and measurement of its emission at 590 nm using a Cytation 5 Imaging Reader from BioTek. The obtained data was analysed with the GraphPad Prism software
MCTS were cultured using ultra-low attachment 96 wells plates from Corning (Fisher Scientific 15329740). A2780 cells were seeded at a density of 1,500 cells per well in 100 μL of RPMI. Within 2-3 days, MCTSs have approximately 500 μm of diameter. The formation as well as integrity and diameter of the MCTSs were monitored by microscopy.
(Photo-)cytotoxicity on 3D multicellular tumor spheroids (MCTS)
After 2 days of growing at 37 °C in 5% CO2, the medium was removed, and MCTSs were treated by adding 100 μL of the medium in the well with increasing concentrations of compounds (Os-Pt-Cer, Os, Ceritinib, Oxaliplatin, cisplatin, and Ce6 as additional control). For untreated reference MCTSs, only half of the medium was added with fresh medium. After 24 hours, the MCTSs were divided into two identical groups. The first group was strictly kept in the dark. The second group was irradiated at 740 nm for 1 h (12.60 J·cm-2) using a LUMOS-BIO photoreactor (Atlas Photonics). After the irradiation, all groups were incubated additional 7 days. Thereafter, medium was replaced with 100 μL of fresh medium containing resazurin (0.2 mg/mL). After 24 h of incubation at 37 °C, 5% CO 2, plates were read using a SpectraMaxM2 Microplate Reader ( λexc = 540 nm; λread = 590 nm). Fluorescence data were normalised, and data were fitted using GraphPad Prism Software, and IC 50 was calculated by non - linear regression. Changes in the size and shape of MCTS were monitored every 24 h using Cytation 5 Imaging Reader from BioTek, objective x4. […]
Figure S29. Cell viability graphs after one week of incubation. Studied compounds were incubated for 24 h, thereafter the medium was renovated. For PDT, plates were irradiated at 740 nm for 1h using a LUMOS-BIO photoreactor (Atlas Photonics). For both PDT and regular cytotoxicity, cells were incubated for one week at 37 °C, 5 % CO2. The medium was renovated each two days. Then, the medium was replaced with 100 µL of fresh medium containing 0.2 mg/mL resazurin (Acros Organics). After 24 h of incubation, the fluorescence signal of the resazurin product was recorded (λexc = 540 nm; λem = 590 nm) using a Cytation 5 Cell Imaging Multi-Mode Reader (Biotek - Agilent).
(1 picture or pasted object on this page, not shown here)

RPE‐1 cells = test: (Photo-)cytotoxicity on 2D cell monolayers, resazurin assay; type: cell-based; settings: RPE‐1, normoxic, dark, 4 h exposure, total 48 h incubation, read-out: IC50 Dark
Method: The 2D cytotoxicity and phototoxicity profiles of Os‐Pt‐Cer and controls, were evaluated in a panel of cancerous cell lines, including A2780 (ovarian carcinoma), A549 (non‐small cell lung carcinoma), and MCA205 (murine fibrosarcoma), as well as a non‐cancerous retinal pigment epithelial cell line (RPE‐1). Cells were treated with the compounds (0.003–100 µM) for 4 h, either kept in the dark or irradiated at 670 nm (13.5 J cm^− ^2) (Table S4 and Figure S22) or 740 nm (12.6 J cm^− ^2) and viability was assessed 44 h post‐treatment. To verify robustness, the incubation was extended to 72 h. […]
Human ovarian cancer (A2780) cells and mouse fibrosarcoma cells (MCA205) were cultured in RPMI media. Retinal pigment epithelium (RPE -1) cells were cultured in DMEM/F -12 medium. Lung cancer cells (A549) were cultured in F -12K medium. These cell lines were complemented with 10% of fetal bovine serum, 100 U/mL penicillin -streptomycin mixture, and maintained in a humidified atmosphere […]
(Photo-)cytotoxicity on 2D cell monolayers
The cytotoxicity of the compounds was assessed by measuring cell viability using a resazurin assay.
The cells were seeded in triplicates in 96 well plates with a density of 10 4 cells per well in 100 μL of media. After 24 h, the medium was removed, and the cells were treated with increasing concentrations (0.003 → 100 µM) of the compounds diluted in cell media , achieving a total volume of 100 μL/well.
The cells were incubated with the compound for 4 h (final incubation time 48 h) or 24 h (final incubation time 72 h). After this time, the media was removed and replaced with 100 μL of fresh medium. For the phototoxicity studies, the cells were exposed to light with an Atlas Photonics LUMOS BIO irradiation system. Each well was constantly irradiated at 670 nm (60 min, 13.50 J·cm-2) or 740 nm (60 min, 12.60 J·cm-2). During the irradiation, the temperature of the plate was maintained at 37 °C. The cells were grown in the incubator for an additional 44 or 48 h, respectively. For the determination of the dark cytotoxicity, the cells were not irradiated and after the medium exchange directly incubated for 44 h.
After this time, the medium was replaced with fresh medium containing resazurin (0.2 mg/mL). After […]
4 h of incubation, the conversion of resazurin into resorufin was determined upon excitation at 540 nm and measurement of its emission at 590 nm using a Cytation 5 Imaging Reader from BioTek. The obtained data was analysed with the GraphPad Prism software […]
After 24 h of incubation at 37 °C, 5% CO 2, plates were read using a SpectraMaxM2 Microplate Reader ( λexc = 540 nm; λread = 590 nm). Fluorescence data were normalised, and data were fitted using GraphPad Prism Software, and IC 50 was calculated by non - linear regression. Changes in the size and shape of MCTS were monitored every 24 h using Cytation 5 Imaging Reader from BioTek, objective x4.
Intracellular distribution by confocal fluorescence microscopy
10^4 cells/well (A2780 cells) were seeded in complete medium (RPMI) in µ -slide 8 well (Ibidi) (100 µl/well) and left for 24 h to attach to the bottom. Then, the culture medium was removed , and 100 µl of solution of the corresponding complexes (5 µM) was added. The complexes were incubated with the cells for 4 hours. Thereafter, the medium was removed and replaced by RPMI without phenol red , and Hoechst and MitoTracker Green were added at a final concentration of 1 µg/mL. They were incubated with the cells for 30 min in the dark at 37 °C. Images were collected in a sequential mode in a Leica TCS SP8 confocal microscope with a 60x oil immers ion objective, a line average of 4, and a format of […]
(MTG)→ 500 -550nm, and 488 nm (complexes)→ 680 -730 nm. The confocal pinhole was 1 Airy unit.
Images were analysed with LAS X Flim FCS software.
Intracellular distribution by ICP -MS

[1] = Homo sapiens, 168 h, dark, read-out: IC50 Dark

Row | Compound | PI (A2780 MCTSs) | IC50 (A2780 MCTSs; [1]) | IC50 (A2780 MCTSs; Homo sapiens, 740 nm (60 min, 12.60 J·cm^−2), read-out: IC50 Irrad. 740 nm) | IC50 (A2780 MCTSs; dark, read-out: IC50 Dark) | IC50 (RPE‐1 cells) | IC50 (RPE‐1 cells; Homo sapiens)
1 | C=Cc1c(C)c2cc3nc(c(CC(=O)O)c4[nH]c(cc5nc(cc1[nH]2)C(C)=C5CC)c(C)c4C(=O)O)[C@@H](CCC(=O)O)[C@@H]3C [Ce6, Chlorin e6] | ≥7 | > 5 µM | 0.7 ± 0.4 µM | – | – | –
2 | O=C1[O][Pt]2([NH][C@@H]3CCCC[C@H]3[NH]2)[O]C1=O [Oxaliplatin] | – | – | – | 0.5 ± 0.7 µM | > 100 µM | –
3 | Cc1cc(Nc2ncc(Cl)c(Nc3ccccc3S(=O)(=O)C(C)C)n2)c(OC(C)C)cc1C1CCNCC1 [Ceritinib] | – | > 5 µM | – | – | – | 4.76 ± 0.2 µM
